Measurements published in patent publication US20160129011A1, “BICYCLO 2,3-BENZODIAZEPINES AND SPIROCYCLICALLY SUBSTITUTED 2,3-BENZODIAZEPINES” (BAYER PHARMA AKTIENGESELLSCHAFT, priority 2013, published 2016).

What was measured:
[1] = tested on: MV4-11 cells; test: Cell proliferation assay (alamarBlue), MV4-11; type: cell-based; conditions: Homo sapiens, acute myeloid leukaemia cell line, 72 h incubation
Description: (§1) In accordance with the invention, the ability of the substances to inhibit cell proliferation was determined. Cell viability was determined by means of the alamarBlue® reagent (Invitrogen) in a Victor X3 Multilabel Reader (Perkin Elmer). The excitation wavelength was 530 nm and the emission wavelength […].
The MV4-11 cells (ATCC, CRL 9591) were sown at a concentration of 5000 cells/well in 100 μl of growth medium (RPMI1640, 10% FCS) on 96-well microtitre plates.
(§2) The MDA-MB-231 cells (DSMZ, ACC 732) were sown at a concentration of 4000 cells/well in 100 μl of growth medium (DMEM/Ham's F12 medium, 10% FCS) on 96-well microtitre plates. After overnight incubation at 37° C., the fluorescence values (CI values) were determined. Then the plates were treated with various substance dilutions (1E-5 M, 3E-6 M, 1E-6 M, 3E-7 M, 1E-7 M, 3E-8 M, 1E-8 M) and incubated at 37° C. for 72 (MV4-11, LOX-IMVI cells), 96 (MOLM-13, B16F10, […] cells), 120 (MOLP-8, KMS-12-PE cells) or 168 (LAPC-4 cells) hours. Subsequently, the fluorescence values were determined (CO values). For the data analysis, the CI values were subtracted from the CO values and the results were compared between cells which had been treated with various dilutions of the substance or only with buffer solution. This was used to calculate the IC50 values (substance concentration required for 50% inhibition of cell proliferation). […]

[2] = tested on: LOX-IMVI cells; test: Cell proliferation assay (alamarBlue), LOX IMVI; type: cell-based; conditions: Homo sapiens, melanoma (BRAF mutated) cell line, 72 h incubation
Description: as §1
The LOX-IMVI cells (NCI-60) were sown at a concentration of 1000 cells/well in 100 μl of growth medium (RPMI1640, 10% FCS) on 96-well microtitre plates.
as §2

[3] = tested on: LAPC-4 cells; test: Cell proliferation assay (alamarBlue), LAPC-4; type: cell-based; conditions: Homo sapiens, LAPC4; prostate cancer cell line, 1 nM methyltrienolone, 168 h incubation
Description: as §1
The LAPC-4 cells (ATCC, PTA-1441TM) were sown at a concentration of 4000 cells/well in 100 μl of growth medium (RPMI1640, 2 mM L-glutamine, 10% cFCS) on 96-well microtitre plates. One day later, the LAPC-4 cells were treated with 1 nM methyltrienolone and various substance dilutions.
The MDA-MB-231 cells (DSMZ, ACC 732) were sown at a concentration of 4000 cells/well in 100 μl of growth medium (DMEM/Ham's F12 medium, 10% FCS) on 96-well microtitre plates. After overnight incubation at 37° C., the fluorescence values (CI values) were determined. Then the plates were treated with various substance dilutions (1E-5 M, 3E-6 M, 1E-6 M, 3E-7 M, 1E-7 M, 3E-8 M, 1E-8 M) and incubated at 37° C. for 72 (MV4-11, LOX-IMVI cells), 96 (MOLM-13, B16F10, […] cells), 120 (MOLP-8, KMS-12-PE cells) or 168 (LAPC-4 cells) hours. Subsequently, the fluorescence values were determined (CO values). […]

[4] = biological target: T1, BRD4 (BD1) (Homo sapiens, UniProt O60885); test: Binding assay BRD4/acetylated peptide H4 (TR-FRET protein-protein interaction assay); conditions: BRD4 (BD1) / acetylated histone H4 peptide
T1 construct: longer constructs also being possible, preferably amino acids 44-168; made in house; host or cells: E. coli
Method in brief: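 His6-tagged BRD4 BD1 (aa 67-152, E. coli-expressed, typically 10 nM) was used with a biotinylated tetra-acetylated H4 peptide, and compounds at 0.1 nM–20 μM in duplicate. After 10 min preincubation, mixtures were incubated 1 h at 22 °C, then ≥3 h at 4 °C. Read-out was the TR-FRET 665/622 nm ratio (Eu-streptavidin to anti-His-XL665); IC50 from a 4-parameter fit.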

[5] = tested on: MOLM-13 cells; test: Cell proliferation assay (alamarBlue), MOLM-13; type: cell-based; conditions: Homo sapiens, MOLM-13; acute myeloid leukaemia cell line, 96 h incubation
Method in brief: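 MOLM-13 cells in RPMI1640/10% FCS were plated overnight, then exposed to seven compound dilutions (1E-5 to 1E-8 M) for 96 h at 37 °C. Viability was read by alamarBlue fluorescence (ex 530/em 590 nm). Pre-treatment readings were subtracted, and IC50 was calculated against buffer-treated cells.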

[6] = tested on: KMS-12-PE cells; test: Cell proliferation assay (alamarBlue), KMS-12-PE; type: cell-based; conditions: Homo sapiens, multiple myeloma cell line, 120 h incubation
Description: as §1
The KMS-12-PE cells (DSMZ, ACC 606) were sown at a concentration of 4000 cells/well in 100 μl of growth medium (RPMI1640, 20% FCS) on 96-well microtitre plates.
as §2

[7] = tested on: MOLP-8 cells; test: Cell proliferation assay (alamarBlue), MOLP-8; type: cell-based; conditions: Homo sapiens, MOLP-8; multiple myeloma cell line, 120 h incubation
Description: as §1
The MOLP-8 cells (DSMZ, ACC 569) were sown at a concentration of 4000 cells/well in 100 μl of growth medium (RPMI1640, 20% FCS) on 96-well microtitre plates.
(§3) The MDA-MB-231 cells (DSMZ, ACC 732) were sown at a concentration of 4000 cells/well in 100 μl of growth medium (DMEM/Ham's F12 medium, 10% FCS) on 96-well microtitre plates. After overnight incubation at 37° C., the fluorescence values (CI values) were determined. Then the plates were treated with various substance dilutions (1E-5 M, 3E-6 M, 1E-6 M, 3E-7 M, 1E-7 M, 3E-8 M, 1E-8 M) and incubated at 37° C. for 72 (MV4-11, LOX-IMVI cells), 96 (MOLM-13, B16F10, […] cells), 120 (MOLP-8, KMS-12-PE cells) or 168 (LAPC-4 cells) hours. Subsequently, the fluorescence values were determined (CO values). For the data analysis, the CI values were subtracted from the CO values and the results were compared between cells which had been treated with various dilutions of the substance or only with buffer solution. This was used to calculate the IC50 values (substance concentration required for 50% inhibition of cell proliferation).
(§4) The substances were examined in the cell lines of Table 1 which, in an exemplary manner, represent the stated indications: […]

[8] = tested on: MDA-MB-231 cells; test: Cell proliferation assay (alamarBlue), MDA-MB-231; type: cell-based; conditions: Homo sapiens, mammary carcinoma cell line, 96 h incubation
Description: as §1, §3, §4

[9] = tested on: B16F10 cells; test: Cell proliferation assay (alamarBlue), B16F10; type: cell-based; conditions: Mus musculus, B16-F10; melanoma (BRAF wild-type) cell line, 96 h incubation
Description: as §1
The B16F10 cells (ATCC, CRL-6475) were sown at a concentration of 300-500 cells/well in 100 μl of growth medium (DMEM with phenol red, 10% FCS) on 96-well microtitre plates.
as §3, §4

CNC(=O)N1N=C(c2ccc(N3C[C@H]4CC[C@@H](C3)O4)cc2)c2cc(OC)c(OC)cc2C[C@@H]1C [Example 4.2, (4S)-7,8-dimethoxy-N,4-dimethyl-1-[4-(8-oxa-3-azabicyclo[3.2.1]oct-3-yl)phenyl]-4,5-dihydro-3H-2,3-benzodiazepine-3-carboxamide]
IC50 [1]: 30 nM
IC50 [2]: 170 nM
IC50 [3]: 10 nM
IC50 [4]: 10 nM
IC50 [5]: 40 nM
IC50 [6]: 30 nM
IC50 [7]: 20 nM
IC50 [8]: 40 nM
IC50 [9]: 20 nM
